Laboratory results from ChEMBL document CHEMBL5316333, “Potent Long-Acting Inhibitors Targeting the HIV-1 Capsid Based on a Versatile Quinazolin-4-one Scaffold” (J Med Chem, 2023).

Tests used:
[1] = test system: MT2; assay: Cytotoxicity against human MT2 cells assessed as reduction in cell viability incubated for 4 days by XTT assay; type: toxicity, cell-based; details: mt2, 96 h, 96 h, time 4 day
[2] = test system: Human immunodeficiency virus 1; assay: Antiviral activity against HIV-1 NLRep-Rluc infected in human MT2 cells assessed as inhibition of viral growth incubated for 96 hrs by renilla luciferase assay; type: functional, organism-based
[3] = Clearance in Sprague-Dawley rat at 1 mg/kg, iv and measured upto 96 hrs by LC-MS/MS analysis; type: ADME, organism-based; details: in vivo
[4] = Selectivity index, ratio of CC50 for cytotoxicity against human MT2 cells to EC50 for antiviral activity against HIV-1 NLRep-Rluc infected in human MT2 cells; type: toxicity, cell-based; details: read-out: Ratio CC50/EC50
[5] = Human immunodeficiency virus 1, NLRep-Rluc, MT2, 96 h

clearance [3]	Compound	EC50 [2, 5]	other results
	COc1ccc2c(=O)n(-c3ccc(Cl)c4c(NS(C)(=O)=O)nn(C)c34)c([C@H](Cc3cc(F)cc(F)c3)NC(=O)Cn3nc(C(F)F)c4c3C(F)(F)[C@@H]3C[C@H]43)nc2c1 (stereo in doubt; 13b)		CC50 [1]: > 1000 nM; EC50 ([2]; mt2): 9.8 nM
78 mL/min/kg	Cn1nc(NS(C)(=O)=O)c2c(Cl)ccc(-n3c([C@H](Cc4cc(F)cc(F)c4)NC(=O)Cn4nc(C(F)F)c5c4C(F)(F)[C@@H]4C[C@H]54)nc4cc(S(C)(=O)=O)ccc4c3=O)c21	0.15 nM	
	COc1cccc2nc([C@H](Cc3cc(F)cc(F)c3)NC(=O)Cn3nc(C(F)F)c4c3C(F)(F)[C@@H]3C[C@H]43)n(-c3ccc(Cl)c4c(NS(C)(=O)=O)nn(C)c34)c(=O)c12 (stereo in doubt; 12d)		CC50 [1]: > 20000 nM; EC50 ([2]; mt2): 0.11 nM; selectivity ratio [4]: > 1000
	Cn1nc(NS(C)(=O)=O)c2c(Cl)ccc(-n3c([C@H](Cc4cc(F)cc(F)c4)NC(=O)Cn4nc(C(F)F)c5c4C(F)(F)[C@@H]4C[C@H]54)nc4cc(N5CCC5)ccc4c3=O)c21	0.11 nM	
	Cn1nc(NS(C)(=O)=O)c2c(Cl)ccc(-n3c([C@H](Cc4cc(F)cc(F)c4)NC(=O)Cn4nc(C(F)F)c5c4C(F)(F)[C@@H]4C[C@H]54)nc4cc(N5C[C@H]6CC[C@@H](C5)O6)ccc4c3=O)c21	0.064 nM	
	Cn1nc(NS(C)(=O)=O)c2c(Cl)ccc(-n3c([C@H](Cc4cc(F)cc(F)c4)NC(=O)Cn4nc(C(F)F)c5c4C(F)(F)[C@@H]4C[C@H]54)nc4cc(N5CCOCC5=O)ccc4c3=O)c21	0.11 nM	
11 mL/min/kg	Cn1nc(NS(C)(=O)=O)c2c(Cl)ccc(-n3c([C@H](Cc4cc(F)cc(F)c4)NC(=O)Cn4nc(C(F)F)c5c4C(F)(F)[C@@H]4C[C@H]54)nc4cc(N5CCCCC5)ccc4c3=O)c21	0.27 nM	
	Cn1nc(NS(C)(=O)=O)c2c(Cl)ccc(-n3c([C@H](Cc4cc(F)cc(F)c4)NC(=O)Cn4nc(C(F)F)c5c4C(F)(F)[C@@H]4C[C@H]54)nc4cc(Cl)ccc4c3=O)c21	0.058 nM	
40 mL/min/kg	Cn1nc(NS(C)(=O)=O)c2c(Cl)ccc(-n3c([C@H](Cc4cc(F)cc(F)c4)NC(=O)Cn4nc(C(F)F)c5c4C(F)(F)[C@@H]4C[C@H]54)nc4cc(F)ccc4c3=O)c21	0.041 nM	
	Cn1nc(NS(C)(=O)=O)c2c(Cl)ccc(-n3c([C@H](Cc4cc(F)cc(F)c4)NC(=O)Cn4nc(C(F)F)c5c4C(F)(F)[C@@H]4C[C@H]54)nc4cc(Br)ccc4c3=O)c21	0.053 nM	
	Cn1nc(NS(C)(=O)=O)c2c(Cl)ccc(-n3c([C@H](Cc4cc(F)cc(F)c4)NC(=O)Cn4nc(C(F)F)c5c4C(F)(F)[C@@H]4C[C@H]54)nc4cc(N5CCC6(CC5)COC6)ccc4c3=O)c21	0.13 nM	
26 mL/min/kg	Cn1nc(NS(C)(=O)=O)c2c(Cl)ccc(-n3c([C@H](Cc4cc(F)cc(F)c4)NC(=O)Cn4nc(C(F)F)c5c4C(F)(F)[C@@H]4C[C@H]54)nc4cc(C(C)(C)O)ccc4c3=O)c21	0.15 nM	
2.8 mL/min/kg	Cn1nc(NS(C)(=O)=O)c2c(Cl)ccc(-n3c([C@H](Cc4cc(F)cc(F)c4)NC(=O)Cn4nc(C(F)F)c5c4C(F)(F)[C@@H]4C[C@H]54)nc4cc(C(C)(F)F)ccc4c3=O)c21	0.078 nM	
60 mL/min/kg	CN1CCN(c2ccc3c(=O)n(-c4ccc(Cl)c5c(NS(C)(=O)=O)nn(C)c45)c([C@H](Cc4cc(F)cc(F)c4)NC(=O)Cn4nc(C(F)F)c5c4C(F)(F)[C@@H]4C[C@H]54)nc3c2)CC1	0.15 nM	
30 mL/min/kg	Cn1nc(NS(C)(=O)=O)c2c(Cl)ccc(-n3c([C@H](Cc4cc(F)cc(F)c4)NC(=O)Cn4nc(C(F)F)c5c4C(F)(F)[C@@H]4C[C@H]54)nc4ccccc4c3=O)c21 (stereo in doubt; 12a)		CC50 [1]: > 20000 nM; EC50 ([2]; mt2): 0.049 nM; selectivity ratio [4]: > 1000
4.3 mL/min/kg	Cn1nc(NS(C)(=O)=O)c2c(Cl)ccc(-n3c([C@H](Cc4cc(F)cc(F)c4)NC(=O)Cn4nc(C(F)F)c5c4C(F)(F)[C@@H]4C[C@H]54)nc4cc(C5CC5)ccc4c3=O)c21	0.14 nM	
	C[C@@H]1CN(c2ccc3c(=O)n(-c4ccc(Cl)c5c(NS(C)(=O)=O)nn(C)c45)c([C@H](Cc4cc(F)cc(F)c4)NC(=O)Cn4nc(C(F)F)c5c4C(F)(F)[C@@H]4C[C@H]54)nc3c2)C[C@H](C)N1C	0.091 nM	
11 mL/min/kg	COc1ccc2c(=O)n(-c3ccc(Cl)c4c(NS(C)(=O)=O)nn(C)c34)c([C@H](Cc3cc(F)cc(F)c3)NC(=O)Cn3nc(C(F)F)c4c3C(F)(F)[C@@H]3C[C@H]43)nc2c1F	0.13 nM	
	COc1cccc2nc([C@H](Cc3cc(F)cc(F)c3)NC(=O)Cn3nc(C(F)F)c4c3C(F)(F)[C@@H]3C[C@H]43)n(-c3ccc(Cl)c4c(NS(C)(=O)=O)nn(C)c34)c(=O)c12 (stereo in doubt; 13d)		CC50 [1]: > 1000 nM; EC50 ([2]; mt2): 130 nM
	Cn1nc(NS(C)(=O)=O)c2c(Cl)ccc(-n3c([C@H](Cc4cc(F)cc(F)c4)NC(=O)Cn4nc(C(F)F)c5c4C(F)(F)[C@@H]4C[C@H]54)nc4cc(N5CCCOCC5)ccc4c3=O)c21	0.13 nM	

clearance [3]	Compound	EC50 [2, 5]	other results
	Cn1nc(NS(C)(=O)=O)c2c(Cl)ccc(-n3c([C@H](Cc4cc(F)cc(F)c4)NC(=O)Cn4nc(C(F)F)c5c4C(F)(F)[C@@H]4C[C@H]54)nc4ccccc4c3=O)c21 (stereo in doubt; 13a)		CC50 [1]: > 1000 nM; EC50 ([2]; mt2): 81 nM
	COC1CCN(c2ccc3c(=O)n(-c4ccc(Cl)c5c(NS(C)(=O)=O)nn(C)c45)c([C@H](Cc4cc(F)cc(F)c4)NC(=O)Cn4nc(C(F)F)c5c4C(F)(F)[C@@H]4C[C@H]54)nc3c2)CC1	0.12 nM	
65 mL/min/kg	COc1cc(OC)c2c(=O)n(-c3ccc(Cl)c4c(NS(C)(=O)=O)nn(C)c34)c([C@H](Cc3cc(F)cc(F)c3)NC(=O)Cn3nc(C(F)F)c4c3C(F)(F)[C@@H]3C[C@H]43)nc2c1	0.064 nM	
	COc1cccc2c(=O)n(-c3ccc(Cl)c4c(NS(C)(=O)=O)nn(C)c34)c([C@H](Cc3cc(F)cc(F)c3)NC(=O)Cn3nc(C(F)F)c4c3C(F)(F)[C@@H]3C[C@H]43)nc12	0.095 nM	
82 mL/min/kg	Cn1nc(NS(C)(=O)=O)c2c(Cl)ccc(-n3c([C@H](Cc4cc(F)cc(F)c4)NC(=O)Cn4nc(C(F)F)c5c4C(F)(F)[C@@H]4C[C@H]54)nc4cc(C#N)ccc4c3=O)c21	0.017 nM	
	Cn1nc(NS(C)(=O)=O)c2c(Cl)ccc(-n3c([C@H](Cc4cc(F)cc(F)c4)NC(=O)Cn4nc(C(F)F)c5c4C(F)(F)[C@@H]4C[C@H]54)nc4cc(N5[C@@H]6CC[C@H]5COC6)ccc4c3=O)c21	0.057 nM	
	CCN(CC)c1ccc2c(=O)n(-c3ccc(Cl)c4c(NS(C)(=O)=O)nn(C)c34)c([C@H](Cc3cc(F)cc(F)c3)NC(=O)Cn3nc(C(F)F)c4c3C(F)(F)[C@@H]3C[C@H]43)nc2c1	0.2 nM	
18 mL/min/kg	Cn1nc(NS(C)(=O)=O)c2c(Cl)ccc(-n3c([C@H](Cc4cc(F)cc(F)c4)NC(=O)Cn4nc(C(F)F)c5c4C(F)(F)[C@@H]4C[C@H]54)nc4cc(N5CC6(COC6)C5)ccc4c3=O)c21	0.064 nM	
	Cn1nc(NS(C)(=O)=O)c2c(Cl)ccc(-n3c([C@H](Cc4cc(F)cc(F)c4)NC(=O)Cn4nc(C(F)F)c5c4C(F)(F)[C@@H]4C[C@H]54)nc4cc(N5CC(C)(C)OC(C)(C)C5)ccc4c3=O)c21	0.12 nM	
	Cn1nc(NS(C)(=O)=O)c2c(Cl)ccc(-n3c([C@H](Cc4cc(F)cc(F)c4)NC(=O)Cn4nc(C(F)F)c5c4C(F)(F)[C@@H]4C[C@H]54)nc4cc(N5C6COCC5COC6)ccc4c3=O)c21	0.24 nM	
	CO[C@@H]1CCN(c2ccc3c(=O)n(-c4ccc(Cl)c5c(NS(C)(=O)=O)nn(C)c45)c([C@H](Cc4cc(F)cc(F)c4)NC(=O)Cn4nc(C(F)F)c5c4C(F)(F)[C@@H]4C[C@H]54)nc3c2)C1	0.058 nM	
29 mL/min/kg	Cn1nc(NS(C)(=O)=O)c2c(Cl)ccc(-n3c([C@H](Cc4cc(F)cc(F)c4)NC(=O)Cn4nc(C(F)F)c5c4C(F)(F)[C@@H]4C[C@H]54)nc4ccc(F)cc4c3=O)c21	0.045 nM	
	COc1ccc2nc([C@H](Cc3cc(F)cc(F)c3)NC(=O)Cn3nc(C(F)F)c4c3C(F)(F)[C@@H]3C[C@H]43)n(-c3ccc(Cl)c4c(NS(C)(=O)=O)nn(C)c34)c(=O)c2c1 (stereo in doubt; 13c)		EC50 ([2]; mt2): 38 nM
19 mL/min/kg	Cn1nc(NS(C)(=O)=O)c2c(Cl)ccc(-n3c([C@H](Cc4cc(F)cc(F)c4)NC(=O)Cn4nc(C(F)F)c5c4C(F)(F)[C@@H]4C[C@H]54)nc4cc(C(C)(C)C)ccc4c3=O)c21	0.13 nM	
9.6 mL/min/kg	Cn1nc(NS(C)(=O)=O)c2c(Cl)ccc(-n3c([C@H](Cc4cc(F)cc(F)c4)NC(=O)Cn4nc(C(F)F)c5c4C(F)(F)[C@@H]4C[C@H]54)nc4cc(N5CCOC(C)(C)C5)ccc4c3=O)c21	0.05 nM	
16 mL/min/kg	Cn1nc(NS(C)(=O)=O)c2c(Cl)ccc(-n3c([C@H](Cc4cc(F)cc(F)c4)NC(=O)Cn4nc(C(F)F)c5c4C(F)(F)[C@@H]4C[C@H]54)nc4cc(N5CCOCC5)ccc4c3=O)c21	0.037 nM	
	Cn1nc(NS(C)(=O)=O)c2c(Cl)ccc(-n3c([C@H](Cc4cc(F)cc(F)c4)NC(=O)Cn4nc(C(F)F)c5c4C(F)(F)[C@@H]4C[C@H]54)nc4cc(N5CCO[C@@H](C(F)(F)F)C5)ccc4c3=O)c21	0.081 nM	
	Cn1nc(NS(C)(=O)=O)c2c(Cl)ccc(-n3c([C@H](Cc4cc(F)cc(F)c4)NC(=O)Cn4nc(C(F)F)c5c4C(F)(F)[C@@H]4C[C@H]54)nc4cc(N5CCCC5)ccc4c3=O)c21	0.23 nM	
	Cn1nc(NS(C)(=O)=O)c2c(Cl)ccc(-n3c([C@H](Cc4cc(F)cc(F)c4)NC(=O)Cn4nc(C(F)F)c5c4C(F)(F)[C@@H]4C[C@H]54)nc4cc(N5CCS(=O)(=O)CC5)ccc4c3=O)c21	0.47 nM	
	Cn1nc(NS(C)(=O)=O)c2c(Cl)ccc(-n3c([C@H](Cc4cc(F)cc(F)c4)NC(=O)Cn4nc(C(F)F)c5c4C(F)(F)[C@@H]4C[C@H]54)nc4cccc(F)c4c3=O)c21	0.13 nM	
